Measurements reported in article PMC7179167 (Molecules, 2020).
Values after ≈ are worked out from the molar mass of the structure shown. Read-outs that look alike come from different tables or passages of the source.

Key:
[1] = test system: B. subtilis (ATCC 6633); experiment: Disk diffusion antimicrobial test, B. subtilis; type: cell-based, Bacillus subtilis; conditions: Bacillus subtilis, ATCC6633, Gram-positive, 20 mg per disc (title), concentration 20 µg (footnote)
Description: (§1) The newly synthesized compounds were chosen to be evaluated in vitro towards a variety of pathogenic microorganisms; Gram-positive bacteria: S. aureus (ATCC 6538) and B. subtilis (ATCC 6633); Gram-negative bacteria: P. areuginosa (ATCC 27853) and E. coli (DSMZ 1058); yeast: C. albicans (ATCC 10231) and S. cerevisiae (ATCC 9080) and fungi: A. niger (NRRL A-326) using the disk diffusion method at a single dose of 20 µl. The results are shown in Table 1 as the growth inhibition zone (mm).
(§2) The antimicrobial activity of target compounds were evaluated to be in vitro against a variety of pathogenic microorganisms, namely Staphylococcus aureus (ATCC 6538), Bacillus subtilis (ATCC 6633) (Gram-positive bacteria), Pseudomonas areuginosa (ATCC 27853), Escherichia coli (DSMZ 1058) (Gram-negative bacteria), Candida albicans (ATCC 10231), Saccharomyces cerevisiae (ATCC 9080) (Yeast) and Aspergillus niger (NRRL A-326) (Fungi) using the disk diffusion method at a single dose of 20 µg. The microorganisms were served and obtained from the Microbial Biotechnology Department, National Research Center, Giza, Egypt. Amphotericin, amoxicillin and ciprofloxacin were used as reference drugs (Oxoid™ Disks). The tested compounds 11a–c, 12a–c, 13a–i, 14a–i and 15a,b were dissolved in dimethylsulphoxide (DMSO) at a concentration of 1 mg/mL. Aliquots of 20 μl were soaked on filter paper discs (6 mm) and dried at room temperature under sterilized conditions. The paper discs were placed on inoculated agar plats and then incubated for 24 h at 37 °C for bacterial strains and after 48–72 h incubation at 30 °C for fungi. Both bacterial and yeast strains were grown on nutrient agar medium (g/l): beef extract, 3; peptone, 10 and agar, 20 at pH of 7.2. The fungal strain was grown on Czapek-Dox medium (g/l): sucrose, 30; NaNO3, 3; MgSO4.7H2O, 0.5l; KCl, 0.5; FeSO4, 0.01; K2HPO4, 1 and agar, 20 at pH of 6.0.

[2] = test system: S. aureus (ATCC 6538); experiment: Disk diffusion antimicrobial test, S. aureus; type: cell-based, Staphylococcus aureus; conditions: Staphylococcus aureus, ATCC6538, Gram-positive, 20 mg per disc (title), concentration 20 µg (footnote)
Description: as §1, §2

[3] = test system: MCF-7 (human breast cancer); experiment: MTT cytotoxicity assay, MCF-7; type: cell-based; conditions: for inhibition at 100 µg/mL: MCF7, 100 µg/ml, 48 h, read-out: Growth Inhibition (%) MCF-7; for IC50: MCF7, 48 h post-treatment
[4] = DPPH free radical scavenging assay; type: biochemical; conditions: concentration of 20µg/l, mean ± SD of three experiments
Description: Antioxidant activity of the newly synthesized 13a–i, 14a–i, 11a–c and 12a–c were assessed in terms of hydrogen-donating or radical-scavenging ability via the stable free radical 1,1-diphenyl-2-picrylhydrazyl (DPPH) using ascorbic acid as a reference at a concentration of […].
The free radical scavenging activity (RSA) was assessed spectrophotometically at 517 nm via decoloration of the solution of the DPPH (1,1-diphenyl-2-picrylhydrazyl) radical according to Brand-Williams et al. 1995 [32]. DPPH solution was prepared by dissolving of 20 mg of DPPH in one liter of dimethylsulphoxide (DMSO). A freshly prepared DPPH solution was used for the assay. Each of the tested compounds 11a–c, 12a–c, 13a–i, 14a–i and 15a,b were dissolved in DMSO (1mg/mL). A volume of […] of a DMSO stock solution of the test compounds was added to 2 mL of freshly prepared DPPH in DMSO solution. The mixtures were shaken in a vortex (2500 rpm) for 1 min and then left to stand for 15, 30, 45 and 60 min in the dark room. The absorbance was measured at 517 nm against blank using UV visible spectrophotometer 2401 PC (Shimadzu, Kyoto, Japan). Lower absorbance of the reaction mixture indicated higher free radical scavenging activity was analyzed from the graph plots of the inhibition percentage against the compound concentration. The experiment was carried out in triplicate and averaged. The scavenging activity was calculated according to the following formula:Scavenging ability (%) = (A517 of control - A517of sample / A 517 of control) ×100(1)

[5] = test system: HCT-116 (human colon cancer); experiment: MTT cytotoxicity assay, HCT-116; type: cell-based; conditions: Homo sapiens; for inhibition at 100 µg/mL: HCT-116, 100 µg/ml, 48 h, read-out: Growth Inhibition (%) HCT-116; for IC50: HCT-116, 48 h, 48 h post-treatment
Description: (§3) MCF-7 (human breast cancer), HCT-116 (human colon cancer) and HepG2 (human liver cancer) cell lines were obtained from Karolinska Institute, Stockholm, Sweden. All cells were maintained in RPMI 1640 medium. The media were supplemented with 10% heat-inactivated fetal bovine serum plus 1% antibiotic-antimycoticmixture (10,000 U/mL of potassium penicillin, 10,000 μg/mL of streptomycin sulfate, 25 μg/mL of amphotericin B and 1% of L glutamine (Biowest, USA)). BJ-1 of a human skin fibroblast derived from normal foreskin was obtained from ATCC® CRL-2522™ as a frozen ampoule with about 1 × 10^6 cells per 1 ml volume. BJ-1 was maintained in MEM with 2 mM of L-glutamine and Earle’s salts medium.
(§4) Cell viability was studied using the MTT 3-(4,5-dimethylthiazol-2-yl)-2,5-diphenyl-tetrazolium bromide (Bio Basic Canada Inc. Toronto, Canada) assay [33]. The steps were executed in a sterile laminar air flow cabinet biosafety class II level (Baker, SG403INT; Sanford, ME, USA). All incubations were carried out at 37 °C in a 5% CO2 incubator under a humidified atmosphere of 95% (Sheldon, TC2323; Cornelius, OR, USA). Cells were seeded into 96-well microtiter plastic plates at a concentration of (10^4 cells/well) and allowed to adhere for 24 h. The medium was aspirated and then added to the cells with the test compounds 11a–c, 12a–c, 13a–i, 14a–i and 15a,b at a single dose of 100 μg/mL in DMSO. After incubation of the medium for 48 h, 40 μL of MTT salt (2.5 μg/mL) was added to each well and then incubated for an additional 4 h. To stop the reaction and dissolve any formed formazan crystals, 200 μL of 10% sodium dodecyl sulfate (SDS) were added to each well and incubated overnight at 37 °C. The amount of formazan product was measured at 595 nm with a reference wavelength of 690 nm as a background using a microplate reader (Bio-Rad Laboratories, model 3350, California, USA). For the untreated cells (negative control), the medium was added instead of the tested compounds. […] Dimethylsulfoxide (DMSO) was the vehicle used for dissolution of the testing compound, and its final concentration on the cells was less than 0.2%. At the same dilution, the solvent concentration was the same for all drugs and between the control and drug treatments.

[6] = test system: C. albicans (ATCC 10231); experiment: Disk diffusion antimicrobial test, C. albicans; type: cell-based, Candida albicans; conditions: Candida albicans, ATCC10231, disk diffusion; yeast; 20 mg per disc (title), concentration 20 µg (footnote)
Description: as §1, §2

[7] = test system: S. cerevisiae (ATCC 9080); experiment: Disk diffusion antimicrobial test, S. cerevisiae; type: cell-based; conditions: Saccharomyces cerevisiae, ATCC9080, yeast, 20 mg per disc (title), concentration 20 µg (footnote)
Description: as §1, §2

[8] = test system: P. aeruginosa (ATCC 27853); experiment: Disk diffusion antimicrobial test, P. aeruginosa; type: cell-based, Pseudomonas areuginosa; conditions: Pseudomonas aeruginosa, ATCC27853, Gram-negative, 20 mg per disc (title), concentration 20 µg (footnote)
Description: as §1, §2

[9] = test system: normal skin fibroblast cells (BJ-1); experiment: MTT cytotoxicity assay, normal skin fibroblast BJ-1; type: cell-based; conditions: Homo sapiens, 48 h, read-out: Growth Inhibition (%) BJ-1
Description: as §3, §4

[10] = test system: HepG-2 (human liver cancer); experiment: MTT cytotoxicity assay, HepG-2; type: cell-based; conditions: for inhibition at 100 µg/mL: HepG2, 100 µg/ml, 48 h, read-out: Growth Inhibition (%) HepG-2; for IC50: HepG2, 48 h post-treatment
Description: as §3, §4

[11] = 15 min, read-out: Scavenging Activity (%) on DPPH radicals at 15 min
[12] = 30 min, read-out: Scavenging Activity (%) on DPPH radicals at 30 min
[13] = 45 min, read-out: Scavenging Activity (%) on DPPH radicals at 45 min
[14] = 60 min, read-out: Scavenging Activity (%) on DPPH radicals at 60 min

SMILES: CC1(C)S[C@@H]2[C@H](NC(=O)[C@H](N)c3ccc(O)cc3)C(=O)N2[C@H]1C(=O)O [Amoxicillin, amoxicillin, reference compound]
- zone of inhibition at 20 µg/disc [1]: 28.4 mm
- zone of inhibition at 20 µg/disc [2]: 25.6 mm

SMILES: CCOc1cc2occc2c(OC)c1C1=NNC2(C1)C(=O)Nc1ccccc12 (stereo not drawn) [Compound 11c, 5’-(6-Ethoxy-4-methoxy-benzofuran-5-yl)-2’,4’-dihydrospiro(indoline-3,3’-pyrazol)-2-one]
- zone of inhibition at 20 µg/disc [1]: 10 mm
- inhibition at 100 µg/mL [3]: 0%
- inhibition [4, 11]: 40.6 ± 1.28%
- inhibition [4, 12]: 40.6 ± 1.81%
- inhibition [4, 13]: 40.6 ± 1.67%
- inhibition [4, 14]: 40.6 ± 1.35%
- inhibition at 100 µg/mL [5]: 30.2%
- melting point: 137 to 139 °C
- zone of inhibition at 20 µg/disc [6]: 25 mm
- zone of inhibition at 20 µg/disc [7]: 25 mm
- zone of inhibition at 20 µg/disc [8]: 10 mm
- inhibition at 100 µg/mL [9]: 45.2%

SMILES: O=C1Nc2ccccc2C12CC(c1c[nH]c3ccccc13)=NN2 (stereo not drawn) [Compound 13a, 5’-(1H-Indol-3-yl)-2’,4’-dihydrospiro(indoline-3,3’-pyrazol)-2-one]
- inhibition at 100 µg/mL [3]: 96.4%
- IC50 [3]: 32.4 mg/L (≈ 107 µM)
- inhibition [4, 11]: 41.1 ± 1.25%
- inhibition [4, 12]: 45.8 ± 1.36%
- inhibition [4, 13]: 56.5 ± 1.99%
- inhibition [4, 14]: 64.1 ± 2.01%
- inhibition at 100 µg/mL [5]: 96.9%
- IC50 [5]: 31.3 mg/L (≈ 104 µM)
- melting point: 318 to 320 °C
- inhibition at 100 µg/mL [10]: 89.3%
- IC50 [10]: 60.6 mg/L (≈ 200 µM)
- zone of inhibition at 20 µg/disc [6]: 18 mm
- zone of inhibition at 20 µg/disc [7]: 20 mm
- inhibition at 100 µg/mL [9]: 11.6%

SMILES: CCn1cc(C2=NNC3(C2)C(=O)Nc2ccccc23)c2ccccc21 (stereo not drawn) [Compound 13b, 5’-(N-Ethyl-1H-indol-3-yl)-2’,4’-dihydrospiro(indoline-3,3’-pyrazol)-2-one]
- inhibition at 100 µg/mL [3]: 95.4%
- IC50 [3]: 24 mg/L (≈ 72.6 µM)
- inhibition [4, 11]: 43.5 ± 1.98%
- inhibition [4, 12]: 47 ± 1.81%
- inhibition [4, 13]: 56.3 ± 1.29%
- inhibition [4, 14]: 65.5 ± 1.55%
- inhibition at 100 µg/mL [5]: 94.5%
- IC50 [5]: 21.3 mg/L (≈ 64.5 µM)
- melting point: 143 to 145 °C
- inhibition at 100 µg/mL [10]: 81.4%
- IC50 [10]: 48 mg/L (≈ 145 µM)
- zone of inhibition at 20 µg/disc [6]: 18 mm
- zone of inhibition at 20 µg/disc [7]: 18 mm
- inhibition at 100 µg/mL [9]: 10.4%

SMILES: O=C(c1ccccc1Cl)n1cc(C2=NNC3(C2)C(=O)Nc2ccccc23)c2ccccc21 (stereo not drawn) [Compound 13e, 5’-(N-(2-Chloro-benzoyl)-1H-indol-3-yl)-2’,4’-dihydrospiro(indoline-3,3’-pyrazol)-2-one]
- inhibition at 100 µg/mL [3]: 96.4%
- IC50 [3]: 31.9 mg/L (≈ 72.4 µM)
- inhibition [4, 11]: 9.1 ± 1.38%
- inhibition [4, 12]: 26.1 ± 1.26%
- inhibition [4, 13]: 36.7 ± 1.62%
- inhibition [4, 14]: 48.1 ± 1.82%
- inhibition at 100 µg/mL [5]: 90.4%
- IC50 [5]: 35.4 mg/L (≈ 80.3 µM)
- melting point: 219 to 221 °C
- inhibition at 100 µg/mL [10]: 79.8%
- IC50 [10]: 67.1 mg/L (≈ 152 µM)
- inhibition at 100 µg/mL [9]: 10.3%

SMILES: O=C(c1ccc(Cl)cc1)n1cc(C2=NNC3(C2)C(=O)Nc2ccccc23)c2ccccc21 (stereo not drawn) [Compound 13f, 5’-(N-(4-Chloro-benzoyl)-1H-indol-3-yl)-2’,4’-dihydrospiro(indoline-3,3’-pyrazol)-2-one]
- inhibition at 100 µg/mL [3]: 79.7%
- IC50 [3]: 32.1 mg/L (≈ 72.8 µM)
- inhibition [4, 11]: 17.9 ± 1.62%
- inhibition [4, 12]: 28.3 ± 1.61%
- inhibition [4, 13]: 34.3 ± 1.27%
- inhibition [4, 14]: 40.7 ± 1.54%
- inhibition at 100 µg/mL [5]: 86.5%
- IC50 [5]: 28.4 mg/L (≈ 64.4 µM)
- melting point: 202 to 204 °C
- inhibition at 100 µg/mL [10]: 72.8%
- IC50 [10]: 83.6 mg/L (≈ 190 µM)
- inhibition at 100 µg/mL [9]: 16.4%

SMILES: O=C1Nc2ccccc2C12CC(c1cn(S(=O)(=O)c3ccc(Br)cc3)c3ccccc13)=NN2 (stereo not drawn) [Compound 13g, 5’-(N-(4-Bromo-benzenesulfonyl)-1H-indol-3-yl)-2’,4’-dihydrospiro(indoline-3,3’-pyrazol)-2-one]
- inhibition at 100 µg/mL [3]: 91.6%
- IC50 [3]: 43 mg/L (≈ 82.5 µM)
- inhibition [4, 11]: 25.9 ± 1.85%
- inhibition [4, 12]: 44 ± 1.46%
- inhibition [4, 13]: 49.2 ± 1.77%
- inhibition [4, 14]: 53.7 ± 1.81%
- inhibition at 100 µg/mL [5]: 92.4%
- IC50 [5]: 35.3 mg/L (≈ 67.7 µM)
- melting point: 190 to 192 °C
- inhibition at 100 µg/mL [10]: 81.9%
- IC50 [10]: 72.2 mg/L (≈ 138 µM)
- inhibition at 100 µg/mL [9]: 13%

SMILES: O=C1Nc2ccccc2C12CC(c1cn(S(=O)(=O)c3ccc(Cl)cc3)c3ccccc13)=NN2 (stereo not drawn) [Compound 13h, 5’-(N-(4-Chloro-benzensulfonyl)-1H-indol-3-yl)-2’,4’-dihydrospiro(indoline-3,3’-pyrazol)-2-one]
- inhibition at 100 µg/mL [3]: 93.4%
- IC50 [3]: 5.8 mg/L (≈ 12.2 µM)
- inhibition [4, 11]: 15.2 ± 1.98%
- inhibition [4, 12]: 16.3 ± 1.96%
- inhibition [4, 13]: 20.6 ± 1.48%
- inhibition [4, 14]: 35.7 ± 1.91%
- inhibition at 100 µg/mL [5]: 91.3%
- IC50 [5]: 20.5 mg/L (≈ 43 µM)
- melting point: 197 to 199 °C
- inhibition at 100 µg/mL [10]: 79.5%
- IC50 [10]: 19.2 mg/L (≈ 40.3 µM)
- inhibition at 100 µg/mL [9]: 14.1%
